ChEMBL document CHEMBL3046037, “Genetic analysis and molecular characterisation of laboratory and field mutants of Botryotinia fuckeliana (Botrytis cinerea) resistant to QoI fungicides” (Pest Manag Sci, 2012)
In brackets after ≈: the same amount, converted by molar mass. Activity calls are given as the source filed them. The rule behind the calls is not given here.

Legend:
Botrytis cinerea [1] = test: Antifungal activity against Botryotinia fuckeliana SAS56 assessed as complete inhibition of colony growth at 3 mg/ml; type: functional, organism-based
Botrytis cinerea [2] = test: Antifungal activity against Botryotinia fuckeliana SAS405 assessed as inhibition of colony growth; type: functional, organism-based
Botrytis cinerea [3] = test: Antifungal activity against Botryotinia fuckeliana SAS56 assessed as inhibition of colony growth; type: functional, organism-based
Botrytis cinerea [4] = test: Resistance index, ratio of EC50 for QoI fungicide-resistant Botryotinia fuckeliana lab isolates to EC50 for Botryotinia fuckeliana SAS405; type: functional
Botrytis cinerea [5] = test: Resistance index, ratio of EC50 for QoI fungicide-resistant Botryotinia fuckeliana lab isolates to EC50 for Botryotinia fuckeliana SAS56; type: functional
Botrytis cinerea [6] = test: Antifungal activity against QoI fungicide-resistant Botryotinia fuckeliana lab isolates assessed as inhibition of colony growth; type: functional, organism-based
Botrytis cinerea [7] = test: Resistance index, ratio of EC50 for QoI fungicide-resistant Botryotinia fuckeliana field isolates expressing cytb G143A mutant gene to EC50 for Botryotinia fuckeliana SAS405; type: functional
Botrytis cinerea [8] = test: Resistance index, ratio of EC50 for QoI fungicide-resistant Botryotinia fuckeliana field isolates expressing cytb G143A mutant gene to EC50 for Botryotinia fuckeliana SAS56; type: functional
Botrytis cinerea [9] = test: Antifungal activity against QoI fungicide-resistant Botryotinia fuckeliana field isolates expressing cytb G143A mutant gene assessed as inhibition of colony growth; type: functional, organism-based
Botrytis cinerea [10] = test: Antifungal activity against Botryotinia fuckeliana SAS56 assessed as complete inhibition of colony growth at […]; type: functional, organism-based

Compound | growth inhibition (GI) (Botrytis cinerea [1]) | EC50 (Botrytis cinerea [2]) [µg/mL] | EC50 (Botrytis cinerea [3]) [µg/mL] | Ratio EC50 (Botrytis cinerea [4]) | Ratio EC50 (Botrytis cinerea [5]) | EC50 (Botrytis cinerea [6]) [µg/mL] | Ratio EC50 (Botrytis cinerea [7]) | Ratio EC50 (Botrytis cinerea [8]) | EC50 (Botrytis cinerea [9]) [µg/mL] | growth inhibition (GI) (Botrytis cinerea [10]) | MIC (Botrytis cinerea [2]) [µg/mL] | MIC (Botrytis cinerea [3]) [µg/mL]
CO/N=C(/C(=O)OC)c1ccccc1COc1ccccc1C [KRESOXIM-METHYL] | Active | 0.01 (≈ 0.0319 µM) | 0.01 (≈ 0.0319 µM) | – | – | – | – | – | – | – | – | –
CO/C=C(/C(=O)OC)c1ccccc1Oc1cc(Oc2ccccc2C#N)ncn1 [AZOXYSTROBIN] | Active | 0.1 (≈ 0.248 µM) | 0.1 (≈ 0.248 µM) | – | – | – | – | – | – | – | – | –
CO/N=C(\C(=O)OC)c1ccccc1CO/N=C(\C)c1cccc(C(F)(F)F)c1 | – | 0.01 (≈ 0.0245 µM) | < 0.01 | >1000 | >1000 | > 100 | >1000 | >1000 | > 100 | Active | 1 (≈ 2.45 µM) | 1 (≈ 2.45 µM)
